Data published in PubChem BioAssay (NCI).
“And” between values parts separate entries of the source, which are not always exact repeats. Equal entries are not always repeated.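 Results reflect a 48-hour exposure of cells in 96-well plates to compound at five concentrations. At the GI50, growth is halved. TGI is the concentration that stops growth completely.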

Each compound was assayed on OVCAR-3 ovarian (assay: inhibition of tumour cell growth, NCI panel, 48 h).

| Structure (SMILES) | GI50 [µM] | TGI [µM] |
| --- | --- | --- |
| N#CC1(c2ccc(NC(=O)c3cccnc3NCc3ccncc3)cc2)CCCC1 | 14.8 | 70 |
| CCN1C(=S)N(CC)C2C1NC(=S)N2/N=C/C=C/c1ccccc1OC (stereo not drawn) | 0.174 | 0.64 |
| Cn1nccc1Nc1nccc(-c2ccn([C@H](CO)c3ccc(Cl)c(F)c3)c(=O)c2)n1 | 37.5 | > 100 |
| N#Cc1nc2c(S(=O)(=O)c3ccc(Cl)cc3)c(N)n(Nc3cccc(Cl)c3)c2nc1C#N |  | 0.0132 |
| O=C(Nc1cccc(-n2cc(-c3ccncc3)c(-c3cc(O)cc(Cl)c3)n2)c1)c1ccc(N2CCOCC2)c(C(F)(F)F)c1 | 7.2 | > 100 |
| N#CC1c2ccccc2C=CN1C(=O)CCCl (stereo not drawn) | 2.51 | 6.1 |
| O=C1/C(=C\c2ccccc2)CN(C(=O)CCN2CCCCC2)C/C1=C/c1ccccc1 |  | 6.5 |
| O=C1NC(=N[C@@H](CO)c2ccccc2)S/C1=C\c1ccc2ncccc2c1 | 14.8 | > 25 |
| O=C1/C(=C/c2ccc(Cl)c(Cl)c2)CN(C(=O)CCN2CCC(=NO)CC2)C/C1=C\c1ccc(Cl)c(Cl)c1 | 0.574 | 1.64 |
| CCN(CC)CCCNc1ccc(C)c2sc3ccccc3c(=O)c12 | 3.42 | 16.2 |
| CCNc1nc(O)c(/C=C2\C=Nc3ncccc32)s1 | 2.66 | 8.49 |
| O=C(/C=C/C12c3ccccc3C(c3ccccc31)C1C(=O)NC(=O)C12)c1ccccn1 (stereo not drawn) | 1.45 | 2.88 |
| CC1=C(C(=O)Nc2ccccc2)C(c2ccc(N(C)C)cc2)C(C(=O)Nc2ccccc2)=C(C)N1 |  | > 100 |

What follows are compounds tested on OVCAR-5 ovarian (assay: inhibition of tumour cell growth, NCI panel, 48 h).

| Structure (SMILES) | GI50 | TGI |
| --- | --- | --- |
| N#CC1(c2ccc(NC(=O)c3cccnc3NCc3ccncc3)cc2)CCCC1 | 22.5 µM | > 91.8 µM |
| CCN1C(=S)N(CC)C2C1NC(=S)N2/N=C/C=C/c1ccccc1OC (stereo not drawn) | 0.442 µM | 35.6 µM |
| Cn1nccc1Nc1nccc(-c2ccn([C@H](CO)c3ccc(Cl)c(F)c3)c(=O)c2)n1 | 2.55 µM | > 100 µM |
| N#Cc1nc2c(S(=O)(=O)c3ccc(Cl)cc3)c(N)n(Nc3cccc(Cl)c3)c2nc1C#N | 0.0219 µM and 0.0224 µM | 0.106 µM and 0.175 µM |
| O=C(Nc1cccc(-n2cc(-c3ccncc3)c(-c3cc(O)cc(Cl)c3)n2)c1)c1ccc(N2CCOCC2)c(C(F)(F)F)c1 | 14.8 µM | 39.6 µM |
| N#CC1c2ccccc2C=CN1C(=O)CCCl (stereo not drawn) | 10.3 µM | 25.9 µM |
| O=C1/C(=C\c2ccccc2)CN(C(=O)CCN2CCCCC2)C/C1=C/c1ccccc1 |  | 3.96 µM |
| O=C1NC(=N[C@@H](CO)c2ccccc2)S/C1=C\c1ccc2ncccc2c1 | > 25 µM | > 25 µM |
| O=C1/C(=C/c2ccc(Cl)c(Cl)c2)CN(C(=O)CCN2CCC(=NO)CC2)C/C1=C\c1ccc(Cl)c(Cl)c1 | 1.13 µM | 2.74 µM |
| CCN(CC)CCCNc1ccc(C)c2sc3ccccc3c(=O)c12 | 1.26 µM | 2.76 µM |
| CCNc1nc(O)c(/C=C2\C=Nc3ncccc32)s1 | 2.37 µM | > 100 µM |
| O=C(/C=C/C12c3ccccc3C(c3ccccc31)C1C(=O)NC(=O)C12)c1ccccn1 (stereo not drawn) | 2.04 µM | 4.54 µM |
| CC1=C(C(=O)Nc2ccccc2)C(c2ccc(N(C)C)cc2)C(C(=O)Nc2ccccc2)=C(C)N1 |  | 99 µM |

Each compound was assayed on PC-3 prostate (assay: inhibition of tumour cell growth, NCI panel, 48 h).

| Structure (SMILES) | GI50 [µM] | TGI [µM] |
| --- | --- | --- |
| N#CC1(c2ccc(NC(=O)c3cccnc3NCc3ccncc3)cc2)CCCC1 | 15.5 | > 64.3 |
| CCN1C(=S)N(CC)C2C1NC(=S)N2/N=C/C=C/c1ccccc1OC (stereo not drawn) | 0.29 | > 100 |
| Cn1nccc1Nc1nccc(-c2ccn([C@H](CO)c3ccc(Cl)c(F)c3)c(=O)c2)n1 | 43.6 | > 100 |
| N#Cc1nc2c(S(=O)(=O)c3ccc(Cl)cc3)c(N)n(Nc3cccc(Cl)c3)c2nc1C#N | 0.00279 |  |
| O=C(Nc1cccc(-n2cc(-c3ccncc3)c(-c3cc(O)cc(Cl)c3)n2)c1)c1ccc(N2CCOCC2)c(C(F)(F)F)c1 | 1.09 | 45.6 |
| N#CC1c2ccccc2C=CN1C(=O)CCCl (stereo not drawn) | 14.1 | 28.5 |
